Reference: patent US7138361B2, “Herbicidal heterocycles” (E. I. du Pont de Nemours and Company, priority 2000, dated 2006)

What was measured:
Assay type in all cases: in vivo
Sunflower [1] = experiment: Test C preemergence; settings: Rate 250 g/ha, visual evaluation after 12 to 14 days
rice (Oryza saliva) = experiment: Test C flooded paddy test; settings: for Rice plant response rating: Flooded Paddy, scale 0 to 100, 0 no effect, 100 complete control; for Plant response rating, Rice: flooded paddy test, scale 0 to 100 (0 no effect, 100 complete control)
How it was run: (§1)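 Plants were grown to the 2-leaf stage under flooded paddy conditions and treated. They were then kept in a greenhouse for 12 to 14 days and visually rated against untreated controls on a 0–100 scale, where 0 is no effect and 100 is complete control.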

[2] = tested on: barnyardgrass (Echinochloa crus-galli); experiment: Test C flooded paddy test; settings: for Barnyardgrass plant response rating: Flooded Paddy, scale 0 to 100, 0 no effect, 100 complete control; for Plant response rating, Barnyardgrass: flooded paddy test, scale 0 to 100 (0 no effect, 100 complete control)
How it was run: as §1

[3] = tested on: woolly cupgrass (Eriochloa villosa); experiment: Test C preemergence
How it was run: (§2)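 Formulation: non-phytotoxic solvent mix incl. surfactant. Pre: applied right after planting. Post: 1–4-leaf seedlings. Read: visual 0–100, day 12–14, greenhouse.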

[4] = tested on: johnsongrass (Sorghum halepense); experiment: Test C preemergence
How it was run: as §2

[5] = tested on: morningglory (Ipomoea hederacea); experiment: Test C preemergence
How it was run: as §2

corn (Zea mays) = experiment: Test C preemergence
How it was run: as §2

Nightshade = experiment: Test C preemergence
[6] = tested on: pigweed (Amaranthus retroflexus); experiment: Test C preemergence
How it was run: as §2

[7] = tested on: giant foxtail (Setaria faberii); experiment: Test C preemergence
How it was run: as §2

Sunflower [8] = experiment: Test C preemergence; settings: Rate 500 g/ha, scale 0 to 100
[9] = tested on: goosegrass (Eleusine indica); experiment: Test C preemergence
How it was run: as §2

[10] = tested on: crabgrass (Digitaria sanguinalis); experiment: Test C preemergence
How it was run: as §2

[11] = tested on: common ragweed (Ambrosia elatior); experiment: Test C preemergence
How it was run: as §2

[12] = tested on: Surinam grass (Brachiaria decumbens); experiment: Test C preemergence
How it was run: as §2

[13] = tested on: yellow nutsedge (Cyperus esculentus); experiment: Test C preemergence
How it was run: as §2

[14] = tested on: cocklebur (Xanthium strumarium); experiment: Test C preemergence
How it was run: as §2

kochia (Kochia scoparia) = experiment: Test C preemergence
How it was run: as §2

[15] = tested on: velvetleaf (Abutilon theophrasti); experiment: Test C preemergence
How it was run: as §2

[16] = tested on: lambsquarters (Chenopodium album); experiment: Test C preemergence
How it was run: as §2

soybean (Glycine max) = experiment: Test C preemergence
How it was run: as §2

[17] = tested on: bermudagrass (Cynodon dactylon); experiment: Test C preemergence
How it was run: as §2

[18] = Preemergence, Rate 500 g/ha, scale 0 to 100
[19] = Rate 62 g/ha, scale 0 to 100, 0 no effect, 100 complete control
[20] = preemergence, Rate 250 g/ha, visual evaluation after 12 to 14 days
[21] = preemergence, Rate 125 g/ha, scale 0 to 100, 0 no effect, 100 complete control

## O=C1C(n2ccc(C3CCCCC3)n2)SCN1c1cccc(C(F)(F)F)c1 (centres unmarked) [Compound 52]
Sunflower [1]
  Plant response rating (0 to 100), Sunflower: 0
Rice (Oryza saliva); Rate 250 g/ha
  Rice plant response rating: 0
Rice (Oryza saliva); Rate 500 g/ha
  Rice plant response rating: 60
Rice (Oryza saliva); Rate 62 g/ha
  Plant response rating, Rice: 0
Rice (Oryza saliva); Rate 125 g/ha
  Plant response rating, Rice: 0
[2]; Rate 250 g/ha
  Barnyardgrass plant response rating: 70
[2]; Rate 500 g/ha
  Barnyardgrass plant response rating: 100
[2]; Rate 62 g/ha
  Plant response rating, Barnyardgrass: 30
[2]; Rate 125 g/ha
  Plant response rating, Barnyardgrass: 60
[3]; [18]
  Plant response rating, Cupgrass, Woolly: 100
[3]; [19]
  Plant response rating, Cupgrass, Woolly: 30
[3]; [20]
  Plant response rating (0 to 100), Cupgrass, Woolly: 60
[3]; [21]
  Plant response rating, Cupgrass, Woolly: 50
[4]; [18]
  Plant response rating, Johnsongrass: 100
[4]; [19]
  Plant response rating, Johnsongrass: 0
[4]; [20]
  Plant response rating (0 to 100), Johnsongrass: 90
[4]; [21]
  Plant response rating, Johnsongrass: 40
[5]; [18]
  Plant response rating, Morningglory: 30
[5]; [20]
  Plant response rating (0 to 100), Morningglory: 0
[5]; [21]
  Plant response rating, Morningglory: 0
Corn (Zea mays); [18]
  Plant response rating, Corn: 40
Corn (Zea mays); [19]
  Plant response rating, Corn: 0
Corn (Zea mays); [20]
  Plant response rating (0 to 100), Corn: 20
Corn (Zea mays); [21]
  Plant response rating, Corn: 0
Nightshade; [19]
  Plant response rating, Nightshade: 30
Nightshade; Rate 125 g/ha, scale 0 to 100, 0 no effect, 100 complete control
  Plant response rating, Nightshade: 30
Nightshade; Rate 500 g/ha, scale 0 to 100
  Plant response rating, Nightshade: 50
[6]; [18]
  Plant response rating, Pigweed: 100
[6]; [20]
  Plant response rating (0 to 100), Pigweed: 30
[6]; [21]
  Plant response rating, Pigweed: 0
[7]; [18]
  Plant response rating, Foxtail, Giant: 30
[7]; [19]
  Plant response rating, Foxtail, Giant: 60
[7]; [21]
  Plant response rating, Foxtail, Giant: 70
Sunflower [8]
  Plant response rating, Sunflower: 50
[9]; [18]
  Plant response rating, Goosegrass: 100
[9]; [19]
  Plant response rating, Goosegrass: 90
[9]; [20]
  Plant response rating (0 to 100), Goosegrass: 100
[9]; [21]
  Plant response rating, Goosegrass: 90
[10]; [18]
  Plant response rating, Crabgrass: 100
[10]; [19]
  Plant response rating, Crabgrass: 90
[10]; [20]
  Plant response rating (0 to 100), Crabgrass: 100
[10]; [21]
  Plant response rating, Crabgrass: 100
[11]; [18]
  Plant response rating, Ragweed, Common: 50
[11]; [20]
  Plant response rating (0 to 100), Ragweed, Common: 40
[11]; [21]
  Plant response rating, Ragweed, Common: 0
[12]; [18]
  Plant response rating, Surinam grass: 50
[12]; [19]
  Plant response rating, Surinam grass: 0
[12]; [20]
  Plant response rating (0 to 100), Surinam grass: 30
[12]; [21]
  Plant response rating, Surinam grass: 20
[13]; [18]
  Plant response rating, Nutsedge: 40
[13]; [19]
  Plant response rating, Nutsedge: 0
[13]; [20]
  Plant response rating (0 to 100), Nutsedge: 20
[13]; [21]
  Plant response rating, Nutsedge: 0
[14]; [18]
  Plant response rating, Cocklebur: 30
[14]; [19]
  Plant response rating, Cocklebur: 0
[14]; [21]
  Plant response rating, Cocklebur: 0
Kochia (Kochia scoparia); [18]
  Plant response rating, Kochia: 60
Kochia (Kochia scoparia); [19]
  Plant response rating, Kochia: 0
Kochia (Kochia scoparia); [20]
  Plant response rating (0 to 100), Kochia: 30
Kochia (Kochia scoparia); [21]
  Plant response rating, Kochia: 20
[15]; [18]
  Plant response rating, Velvetleaf: 0
[15]; [20]
  Plant response rating (0 to 100), Velvetleaf: 0
[15]; [21]
  Plant response rating, Velvetleaf: 0
[16]; [18]
  Plant response rating, Lambsquarters: 100
[16]; [19]
  Plant response rating, Lambsquarters: 0
[16]; [20]
  Plant response rating (0 to 100), Lambsquarters: 100
[16]; [21]
  Plant response rating, Lambsquarters: 80
Soybean (Glycine max); [18]
  Plant response rating, Soybean: 60
Soybean (Glycine max); [20]
  Plant response rating (0 to 100), Soybean: 20
Soybean (Glycine max); [21]
  Plant response rating, Soybean: 20
[17]; [18]
  Plant response rating, Bermudagrass: 100
[17]; [19]
  Plant response rating, Bermudagrass: 100
[17]; [20]
  Plant response rating (0 to 100 where 0 is no effect and 100 is complete control), Bermudagrass: 100
[17]; [21]
  Plant response rating, Bermudagrass: 100
